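Five compound concentrations were applied to cells in 96-well plates for 48 hours; endpoints were derived by simple linear interpolation of the resulting dose-response curve. GI50 is the concentration that inhibits growth by half. TGI denotes the concentration required for complete inhibition of growth.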
Tests used:
Assay in all cases: DTP human tumour cell line panel, 48 h
HCT-116 colon = tested on: HCT-116 colon
HS 578T breast = tested on: HS 578T breast
EKVX NSCLC = tested on: EKVX NSCLC
SK-MEL-5 melanoma = tested on: SK-MEL-5 melanoma
NCI-H522 lung = tested on: NCI-H522 lung
NCI/ADR-RES ovarian = tested on: NCI/ADR-RES ovarian
SK-OV-3 ovarian = tested on: SK-OV-3 ovarian
SF-295 CNS = tested on: SF-295 CNS
RXF 393 renal = tested on: RXF 393 renal
CAKI-1 renal = tested on: CAKI-1 renal
HL-60(TB) leukemia = tested on: HL-60(TB) leukemia
M14 melanoma = tested on: M14 melanoma
KM12 colon = tested on: KM12 colon
MCF7 breast = tested on: MCF7 breast
HCC-2998 colon = tested on: HCC-2998 colon
SW-620 colon = tested on: SW-620 colon
UACC-257 melanoma = tested on: UACC-257 melanoma
LOX IMVI melanoma = tested on: LOX IMVI melanoma
DU-145 prostate = tested on: DU-145 prostate
SF-268 CNS = tested on: SF-268 CNS
NCI-H23 lung = tested on: NCI-H23 lung
BT-549 breast = tested on: BT-549 breast
MALME-3M melanoma = tested on: MALME-3M melanoma
HT29 colon = tested on: HT29 colon
SR leukemia = tested on: SR leukemia
SK-MEL-2 melanoma = tested on: SK-MEL-2 melanoma
OVCAR-5 ovarian = tested on: OVCAR-5 ovarian
TK-10 renal = tested on: TK-10 renal
SF-539 CNS = tested on: SF-539 CNS
HOP-92 NSCLC = tested on: HOP-92 NSCLC
UO-31 renal = tested on: UO-31 renal
U251 CNS = tested on: U251 CNS
IGROV1 ovarian = tested on: IGROV1 ovarian
A498 renal = tested on: A498 renal
OVCAR-4 ovarian = tested on: OVCAR-4 ovarian
NCI-H226 lung = tested on: NCI-H226 lung
OVCAR-3 ovarian = tested on: OVCAR-3 ovarian
SNB-75 CNS = tested on: SNB-75 CNS
UACC-62 melanoma = tested on: UACC-62 melanoma
HOP-62 NSCLC = tested on: HOP-62 NSCLC
OVCAR-8 ovarian = tested on: OVCAR-8 ovarian
A549 NSCLC = tested on: A549 NSCLC
COLO 205 colon = tested on: COLO 205 colon
MDA-MB-231 breast = tested on: MDA-MB-231 breast
ACHN renal = tested on: ACHN renal
PC-3 prostate = tested on: PC-3 prostate
SN12C renal = tested on: SN12C renal
SK-MEL-28 melanoma = tested on: SK-MEL-28 melanoma
NCI-H460 lung = tested on: NCI-H460 lung
MDA-MB-435 = tested on: MDA-MB-435

O=c1ccc2nc(-c3ccccn3)nn(-c3ccccc3)c-2c1
GI50 (HCT-116 colon): 1.77 µM
TGI (HCT-116 colon): 3.42 µM
GI50 (HS 578T breast): 2.85 µM
TGI (HS 578T breast): 35.9 µM
GI50 (EKVX NSCLC): 6.25 µM
TGI (EKVX NSCLC): 20 µM
GI50 (SK-MEL-5 melanoma): 2.3 µM
TGI (SK-MEL-5 melanoma): 5.53 µM
GI50 (NCI-H522 lung): 1.49 µM
TGI (NCI-H522 lung): 3.09 µM
GI50 (NCI/ADR-RES ovarian): 6.91 µM
TGI (NCI/ADR-RES ovarian): 65.3 µM
GI50 (SK-OV-3 ovarian): 11.1 µM
TGI (SK-OV-3 ovarian): 24.1 µM
GI50 (SF-295 CNS): 13.9 µM
TGI (SF-295 CNS): 27.4 µM
GI50 (RXF 393 renal): 1.6 µM
TGI (RXF 393 renal): 3.01 µM
GI50 (CAKI-1 renal): 1.49 µM
TGI (CAKI-1 renal): 2.84 µM
GI50 (HL-60(TB) leukemia): 0.64 µM
TGI (HL-60(TB) leukemia): 3.11 µM
GI50 (M14 melanoma): 3.39 µM
TGI (M14 melanoma): 13.6 µM
GI50 (KM12 colon): 14.5 µM
TGI (KM12 colon): 28.9 µM
GI50 (MCF7 breast): 0.783 µM
TGI (MCF7 breast): 4.71 µM
GI50 (HCC-2998 colon): 4.18 µM
TGI (HCC-2998 colon): 14.6 µM
GI50 (SW-620 colon): 1.77 µM
TGI (SW-620 colon): 3.66 µM
GI50 (UACC-257 melanoma): 1.92 µM
TGI (UACC-257 melanoma): 3.93 µM
GI50 (LOX IMVI melanoma): 1.78 µM
TGI (LOX IMVI melanoma): 3.44 µM
GI50 (DU-145 prostate): 3.77 µM
TGI (DU-145 prostate): 11.1 µM
GI50 (SF-268 CNS): 11.8 µM
TGI (SF-268 CNS): 25.3 µM
GI50 (NCI-H23 lung): 2.19 µM
TGI (NCI-H23 lung): 4.84 µM
GI50 (BT-549 breast): 2.86 µM
TGI (BT-549 breast): 10.1 µM
GI50 (MALME-3M melanoma): 1.77 µM
TGI (MALME-3M melanoma): 3.37 µM
GI50 (HT29 colon): 2.85 µM
TGI (HT29 colon): 8.85 µM
GI50 (SR leukemia): 2.31 µM
TGI (SR leukemia): > 100 µM
GI50 (SK-MEL-2 melanoma): 2.96 µM
TGI (SK-MEL-2 melanoma): 8.68 µM
GI50 (OVCAR-5 ovarian): 4.99 µM
TGI (OVCAR-5 ovarian): 18.1 µM
GI50 (TK-10 renal): 1.66 µM
TGI (TK-10 renal): 3.12 µM
GI50 (SF-539 CNS): 6.93 µM
TGI (SF-539 CNS): 19.8 µM
GI50 (HOP-92 NSCLC): 1.15 µM
TGI (HOP-92 NSCLC): 2.42 µM
GI50 (UO-31 renal): 1.46 µM
TGI (UO-31 renal): 2.82 µM
GI50 (U251 CNS): 3.7 µM
TGI (U251 CNS): 14.2 µM
GI50 (IGROV1 ovarian): 2.63 µM
TGI (IGROV1 ovarian): 6.65 µM
GI50 (A498 renal): 14.1 µM
TGI (A498 renal): 27.2 µM
GI50 (OVCAR-4 ovarian): 1.56 µM
TGI (OVCAR-4 ovarian): 3.04 µM
GI50 (NCI-H226 lung): 3.2 µM
TGI (NCI-H226 lung): 11.9 µM
GI50 (OVCAR-3 ovarian): 1.77 µM
TGI (OVCAR-3 ovarian): 3.17 µM
GI50 (SNB-75 CNS): 11.4 µM
TGI (SNB-75 CNS): 23.5 µM
GI50 (UACC-62 melanoma): 1.95 µM
TGI (UACC-62 melanoma): 4.3 µM
GI50 (HOP-62 NSCLC): 3.76 µM
TGI (HOP-62 NSCLC): 44.3 µM
GI50 (OVCAR-8 ovarian): 3.1 µM
TGI (OVCAR-8 ovarian): > 100 µM
GI50 (A549 NSCLC): 18.4 µM
TGI (A549 NSCLC): 42.3 µM
GI50 (COLO 205 colon): 2.2 µM
TGI (COLO 205 colon): 5.12 µM
GI50 (MDA-MB-231 breast): 1.92 µM
TGI (MDA-MB-231 breast): 3.68 µM
GI50 (ACHN renal): 1.59 µM
TGI (ACHN renal): 2.99 µM
GI50 (PC-3 prostate): 1.93 µM
TGI (PC-3 prostate): 4.18 µM
GI50 (SN12C renal): 2.24 µM
TGI (SN12C renal): 5.33 µM
GI50 (SK-MEL-28 melanoma): 1.69 µM
TGI (SK-MEL-28 melanoma): 3.24 µM
GI50 (NCI-H460 lung): 15.5 µM
TGI (NCI-H460 lung): 32.8 µM
GI50 (MDA-MB-435): 2.29 µM
TGI (MDA-MB-435): 5.75 µM
